System: Streptozotocin-induced Diabetic Cataract
Experiment: Inhibitory effect on streptozotocin-induced diabetic cataract (slit-lamp cataract score, Sasaki scale)
Assay type: in vivo, male SD rats
Protocol: Streptozotocin (hereafter abbreviated as STZ), 70 mg/kg, was administered intravenously to 28 male SD rats aged 4 weeks to induce diabetes. Thereafter, the animals were divided into three groups (two groups consisting of 10 animals each and a group consisting of 8 animals). […] The lens was examined with a slit lamp under mydriasis with Mydrin-P before the beginning of drug administration and every seven days after initiation of administration. The degree of cataract was scored according to the rating scale of Sasaki et al. (Ophthalmic Res. 15: 185-190, 1983) and the anticataract activity of each drug was tested by time series analysis of variance. Body weights were taken on each observation day. […] Rating scale of Sasaki et al. 0: No abnormality. […] Vacuoles are present in the equator of the lens. […] Vacuoles spread toward the anterior pole beneath the cortex of the anterior lens capsule. […] Vacuole begin to merge. […] The deep layer of the cortex of the anterior lens capsule is cloudy. […] The central part of the lens is milk white in color. […] Virtually the entire lens is milk white in color (mature cataract).

[1] = compared with the control group, 100 mg/kg/day i.p. for 56 days
[2] = day 7 after the beginning of treatment, 100 mg/kg/day i.p.
[3] = day 14 after the beginning of treatment, 100 mg/kg/day i.p.
[4] = day 21 after the beginning of treatment, 100 mg/kg/day i.p.
[5] = day 28 after the beginning of treatment, 100 mg/kg/day i.p.
[6] = day 35 after the beginning of treatment, 100 mg/kg/day i.p.
[7] = day 42 after the beginning of treatment, 100 mg/kg/day i.p.
[8] = day 49 after the beginning of treatment, 100 mg/kg/day i.p.
[9] = day 56 after the beginning of treatment, 100 mg/kg/day i.p.

SMILES: N[C@@H](CCC(=O)N[C@@H](CS)C(=O)NCC(=O)O)C(=O)O [Glutathione, glutathione]
- Degree of progression of cataract, time series analysis of variance [1]: no significant difference from the control group
- Time at which cataract scores were reached [1]: scores of 5 and 6 were reached later than in the control group
- Number of eyes with cataract score 0 (day 0 after the beginning of treatment, 100 mg/kg/day i.p.): 16 eyes
- Number of eyes with cataract score 0 [2]: 7 eyes
- Number of eyes with cataract score 1 [2]: 9 eyes
- Number of eyes with cataract score 0 [3]: 1 eyes
- Number of eyes with cataract score 1 [3]: 13 eyes
- Number of eyes with cataract score 2 [3]: 2 eyes
- Number of eyes with cataract score 1 [4]: 3 eyes
- Number of eyes with cataract score 2 [4]: 13 eyes
- Number of eyes with cataract score 2 [5]: 9 eyes
- Number of eyes with cataract score 3 [5]: 7 eyes
- Number of eyes with cataract score 2 [6]: 3 eyes
- Number of eyes with cataract score 3 [6]: 8 eyes
- Number of eyes with cataract score 4 [6]: 3 eyes
- Number of eyes with cataract score 3 [7]: 11 eyes
- Number of eyes with cataract score 4 [7]: 3 eyes
- Number of eyes with cataract score 3 [8]: 10 eyes
- Number of eyes with cataract score 4 [8]: 3 eyes
- Number of eyes with cataract score 5 [8]: 1 eyes
- Number of eyes with cataract score 3 [9]: 4 eyes
- Number of eyes with cataract score 4 [9]: 6 eyes
- Number of eyes with cataract score 5 [9]: 3 eyes
- Number of eyes with cataract score 6 [9]: 1 eyes

Source: patent US5212159A, “Anticataract composition” (Senju Pharmaceutical Co., Ltd., priority 1991, dated 1993)
